The subject of one test is MAPK phosphorylation in PANC-1 pancreatic cancer cell line. The test can be described thus: MAPK cell-based phosphorylation assay (cell-direct ELISA, EGF stimulation). Particulars: Homo sapiens. In a few lines:
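Cell-direct ELISA measured phospho-MAPK, with fluorescence read at 595 nm from AmpliFlu Red. Before fixation, PANC-1 cells starved overnight received 6 hours of compound (30 μM single dose or serial dilutions, 0.3% DMSO, 37° C), followed by 1.5 ng/ml EGF for 15 min.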
For orientation: An ELISA detects its analyte on a solid surface through an enzyme-linked reagent.
Turning to `COCc1ccc(-c2csc3c(O)nc(-c4ccccn4)nc23)cc1F` [drawing 1190], the IC50 (in general, the concentration that gives 50% inhibition) lay in the range of 2 to 10 µM.

In turn, `Oc1nc(-c2ccccn2)nc2c(-c3ccsc3)csc12` [drawing 1214] returned an IC50 below 2 µM.

On to `Cc1ccccc1N1CCN(C(=O)c2csc3c(O)nc(-c4ccccn4)nc23)CC1` [drawing 1123], for which the IC50 is above 30 µM.

In turn, `CC1CN(c2ccccc2)CCN1C(=O)c1csc2c(O)nc(-c3ccccn3)nc12` (centres unmarked) [drawing 1143] gave an IC50 above 30 µM.

For the compound `O=C(c1csc2c(O)nc(-c3ccccn3)nc12)N1CCN(Cc2cccc(O)c2)CC1` [drawing 1125], the IC50 is above 30 µM.

Staying with this test, now noted: Homo sapiens, * = tested at 10 μM.
As to `COCCNc1nc(-c2nccn2C)nc2sc(-c3ccccc3)c(-c3ccccc3)c12` [drawing 1295], the inhibition (usually the percentage by which the read-out fell short of the control) at 10 µM lay in the range of 76 to 100%.

Consider `Cc1cc2nc(-c3ccccn3)nc(O)c2s1` [drawing 1246], for which the inhibition at 10 µM was in the range of 25 to 50%.

`Cc1ccc(-c2csc3c(O)nc(-c4ccccn4)nc23)cc1` [drawing 1320] had an inhibition at 10 µM of 1 to 25%.

For `Cn1ccnc1-c1nc(O)c2scc(-c3ccc(F)cc3F)c2n1` [drawing 1376], testing at 10 µM gave an inhibition of 0%.

For the compound `Oc1nc(-c2ccccn2)nc2c(-c3cncnc3)csc12` [drawing 1265], the inhibition at 10 µM amounted to 0%.

With `COCc1ccc(-c2csc3c(O)nc(-c4ccccn4)nc23)cc1F` [drawing 1190], the inhibition at 10 µM lay within 76 to 100%.

On to `Nc1nc(-c2ccccn2)nc(C(=O)NCCc2ccncc2)c1Oc1ccccc1` [drawing 1311], for which the inhibition at 10 µM was in the range of 1 to 25%.

Regarding `Oc1nc(-c2ccccn2)nc2c(-c3cc(F)ccc3OC(F)F)csc12` [drawing 1202], the inhibition at 10 µM lay in the range of 1 to 25%.

In turn, `Oc1nc(-c2ccccn2)nc2c(-c3ccsc3)csc12` [drawing 1214] registered an inhibition at 10 µM of 76 to 100%.

Take `OCC1(c2ccc(-c3nc(-c4ccccn4)nc(O)c3Oc3ccccc3)cc2)CC1` [drawing 1294]: the inhibition at 10 µM was 1 to 25%.

Regarding `COc1ncc(CCC(=O)Nc2nc(-c3ccccn3)nc3sccc23)cn1`, the inhibition at 10 µM was 76 to 100%.

As for `Cn1cnc(-c2nc(O)c3c(-c4ccccc4)c(-c4ccc(CNC(=O)OC(C)(C)C)cc4)sc3n2)c1` [drawing 1297], testing at 10 µM gave an inhibition of 0%.

`COCC(C)Nc1nc(-c2ccccn2)nc2sc(-c3ccncc3)c(-c3ccccc3)c12` (centres unmarked) [drawing 1301]: the inhibition at 10 µM is 0%.

`CCOCCOc1nc(-c2nccn2C)nc2sc(-c3ccccc3)c(-c3ccccc3)c12` [drawing 1332] had an inhibition at 10 µM of 0%.

`COc1cnc(-c2nccn2C)nc1O` [drawing 1273]: the inhibition at 10 µM is 25 to 50%.

On to `COCCN(C)c1nc(-c2nccn2C)nc2sc(-c3ccccc3)c(-c3ccccc3)c12` [drawing 1326], for which the inhibition at 10 µM lay within 76 to 100%.

In turn, `COc1cnc(-c2cn(C)cn2)nc1O` [drawing 1257] returned an inhibition at 10 µM of 51 to 75%.

Consider `CC(CO)Nc1nc(-c2nccn2C)nc2sc(-c3ccccc3)c(-c3ccccc3)c12` (centres unmarked) [drawing 1338], for which the inhibition at 10 µM was in the range of 25 to 50%.

As for `CCn1nc(C)cc1-c1csc2c(O)nc(-c3ccccn3)nc12` [drawing 1239], the inhibition at 10 µM was in the range of 1 to 25%.

For `Cc1ccc(OC2CCCC2)c(-c2csc3c(O)nc(-c4ccccn4)nc23)c1` [drawing 1189], the inhibition at 10 µM fell in the range of 25 to 50%.

Compound `COCCNc1nc(-c2nccn2C)nc2sc(C)c(-c3ccccc3)c12` [drawing 1344] had an inhibition at 10 µM of 51 to 75%.

Regarding `COc1cnc(-c2cnc[nH]2)nc1O` [drawing 1276], the inhibition at 10 µM was 1 to 25%.

`Oc1nc(-c2ccccn2)nc2c(-c3ccc4c(c3)OCO4)csc12` [drawing 1218] returned an inhibition at 10 µM of 76 to 100%.

For the compound `COc1cccc(-c2csc3c(O)nc(-c4ccccn4)nc23)c1` [drawing 1211], the inhibition at 10 µM lay within 1 to 25%.

`Oc1nc(-c2ccccn2)nc2c(-c3ccc4c(c3)CCCO4)csc12` [drawing 1238] showed an inhibition at 10 µM of 76 to 100%.

Turning to `COc1ccc(-c2cc3nc(-c4ccccn4)nc(O)c3s2)cc1` [drawing 1323], the inhibition at 10 µM lay in the range of 1 to 25%.

For the compound `Cc1sc2c(O)nc(-c3ccccn3)nc2c1C(=O)N1CCN(c2ccccc2)CC1` [drawing 1269], the inhibition at 10 µM is 1 to 25%.

`COCCNc1nc(-c2ccncn2)nc2sc(-c3ccccc3)c(-c3ccccc3)c12` [drawing 1334] came in with an inhibition at 10 µM of 1 to 25%.

The compound `Oc1nc(-c2ccccn2)nc2c(-c3ccc(OC4CCOCC4)cc3)csc12` [drawing 1206] gave an inhibition at 10 µM of 1 to 25%.

`COc1nc(-c2ccccn2)nc2c(C3CCCC3)csc12` [drawing 1244]: the inhibition at 10 µM lay in the range of 1 to 25%.

Regarding `COCCNc1nc(-c2cccc(N)n2)nc2sc(-c3ccccc3)c(-c3ccccc3)c12` [drawing 1351], the inhibition at 10 µM was in the range of 51 to 75%.

`Cc1sc2c(O)nc(-c3nccn3C)nc2c1-c1ccc(OCC(C)C)nc1` [drawing 1360] returned an inhibition at 10 µM of 25 to 50%.

Still in this test, the particulars now being: Homo sapiens, at 30 μM.
`O=C(c1csc2c(O)nc(-c3ccccn3)nc12)N1CCN(c2ccc(F)cc2F)CC1` [drawing 1142] came in with an inhibition at 30 µM of 1 to 25%.

The compound `COc1cccc(C2CN(C(=O)c3csc4c(O)nc(-c5ccccn5)nc34)CCN2)c1` (centres unmarked) [drawing 1150] displayed an inhibition at 30 µM of 1 to 25%.

`Nc1nc(O)c2nc[nH]c2n1` [drawing 1112]: the inhibition at 30 µM is 1 to 25%.

For the compound `Cc1cnc(-c2ccccn2)nc1NC(=O)COCc1ccc(C#N)cc1` [drawing 1174], the inhibition at 30 µM was in the range of 1 to 25%.

Compound `O=S(=O)(Oc1cc(C(F)(F)F)cc(C(F)(F)F)c1)N1CCc2ccccc2C1` [drawing 1052] gave an inhibition at 30 µM of 1 to 25%.

Compound `COc1ccc2c(c1)CCC2C(=O)Nc1nc(-c2ccccn2)nc2sccc12` (centres unmarked) [drawing 1177] had an inhibition at 30 µM of 1 to 25%.

`Cc1ccccc1N1CCN(C(=O)c2csc3c(O)nc(-c4ccccn4)nc23)CC1` [drawing 1123] had an inhibition at 30 µM of 25 to 50%.

In turn, `O=C(CN1CCN(c2nc(-c3ccccn3)nc3scc(-c4ccccc4)c23)CC1)N1CCCCC1` [drawing 1096] showed an inhibition at 30 µM of 25 to 50%.

On to `Nc1nc(-c2ccccn2)nc2sccc12` [drawing 1180], for which the inhibition at 30 µM lay in the range of 1 to 25%.

`OC1CCN(c2nc(-c3ccccn3)nc3scc(-c4ccccc4)c23)CC1` [drawing 1103] yielded an inhibition at 30 µM of 1 to 25%.

For the compound `O=C(c1csc2c(O)nc(-c3ccccn3)nc12)N1CCN(Cc2ccccc2)CC1` [drawing 1144], the inhibition at 30 µM lay within 1 to 25%.

In the case of `CC1CN(c2ccccc2)CCN1C(=O)c1csc2c(O)nc(-c3ccccn3)nc12` (centres unmarked) [drawing 1143], the inhibition at 30 µM was 51 to 75%.

`O=C(C1CCN(c2nc(-c3ccccn3)nc3scc(-c4ccccc4)c23)CC1)N1CCCCC1` [drawing 1105] showed an inhibition at 30 µM of 1 to 25%.

Compound `O=C(c1csc2c(O)nc(-c3ccccn3)nc12)N1CCN(Cc2cccc(O)c2)CC1` [drawing 1125] yielded an inhibition at 30 µM of 51 to 75%.

With `CC(C)(C(=O)Nc1ccnc(-c2ccccn2)n1)c1ccc(C#N)cc1` [drawing 1135], the inhibition at 30 µM lay within 25 to 50%.

In turn, `NC(=O)Cn1cnc2nc(-c3ccccn3)nc(N3CCOCC3)c21` [drawing 1184] registered an inhibition at 30 µM of 1 to 25%.

Compound `Cc1ccccc1C1CN(C(=O)c2csc3c(O)nc(-c4ccccn4)nc23)CCN1` (centres unmarked) [drawing 1152] registered an inhibition at 30 µM of 1 to 25%.

`FC(F)(F)c1csc2nc(-c3ccccn3)nc(N3CCOCC3)c12` [drawing 1132] yielded an inhibition at 30 µM of 1 to 25%.

In turn, `COCCCC1CCN(C(=O)c2csc3c(O)nc(-c4ccccn4)nc23)CC1` [drawing 1066] gave an inhibition at 30 µM of 1 to 25%.

On to `CC(C)C(=O)Nc1nc(CC(=O)Nc2nnc(-c3ccccn3)[nH]2)cs1` [drawing 1022], for which the inhibition at 30 µM lay in the range of 1 to 25%.

The compound `O=C(c1csc2c(O)nc(-c3ccccn3)nc12)N1CCNC(c2ccccc2F)C1` (centres unmarked) [drawing 1153] returned an inhibition at 30 µM of 1 to 25%.

With `Oc1nc(-c2ccccn2)nc2c1ncn2-c1ccccn1` [drawing 1077], the inhibition at 30 µM was 1 to 25%.

For the origin of these results see patent US10940139B2, “Compounds that interact with the Ras superfamily for the treatment of cancers, inflammatory diseases, rasopathies, and fibrotic disease” (Shy Therapeutics LLC, priority 2017, dated 2021).
